Converted amounts (≈) assume the structure as drawn.
Test system: Staphylococcus aureus
Assay: Antimicrobial activity against oxacillin-resistant Staphylococcus aureus clinical isolates by broth microdilution method
Format: functional

CN[C@H](CC(C)C)C(=O)N[C@H]1C(=O)N[C@@H](CC(N)=O)C(=O)N[C@H]2C(=O)N[C@H]3C(=O)N[C@H](C(=O)N[C@H](C(=O)O)c4cc(O)cc(O)c4-c4cc3ccc4O)[C@H](O)c3ccc(c(Cl)c3)Oc3cc2cc(c3O[C@@H]2O[C@H](CO)[C@@H](O)[C@H](O)[C@H]2O[C@H]2C[C@](C)(N)[C@H](O)[C@H](C)O2)Oc2ccc(cc2Cl)[C@H]1O [VANCOMYCIN]
MIC90: 1 µg/mL (≈ 0.69 µM)

— ChEMBL document CHEMBL1649268, “Comparative in vitro activity profile of oritavancin against recent gram-positive clinical isolates” (2009)
